# Reference: patent publication US20250042916A1 (ACONCAGUA BIO, INC., priority 2023, published 2025)
# Legend:
# Assay type in all cases: cell-based
# [1] = target: human calcitonin receptor (CTR) and RAMP3 (AMY3) in COS-7 cells (Homo sapiens, UniProt O60896+P30988); assay: Amylin Receptor cAMP Assay II; details: value marked **: Amylin Receptor cAMP Assay II; COS-7/AMY3 cells; read-out: Amylin Receptor cAMP Stimulation Activity: EC50
# Source text: Amylin Receptor cAMP Assay II
# AMYRs are heterodimers of the class B calcitonin (CT) G-protein-coupled receptor (CTR) and receptor activity-modifying proteins (RAMPs). All three RAMPs can interact with the CTR and form AMY1, AMY2, AMY3 with RAMP1, RAMP2 and RAMP3, respectively. Like other class B1 GPCRs, the CT receptor family is canonically coupled to Gs-mediated cAMP production, and measurement of cAMP accumulation has been the primary assay used to determine peptide selectivity and potency.
# To optimize functional activity directed toward Gas coupling, COS-7 cells were stably transfected with human calcitonin receptor (CTR) and RAMP3, simultaneously. 100× concentration of compound working solutions were prepared with 4-fold serial dilution in 384-well Echo LDV plate (Labcyte, Cat #LP-0200-BC). 200 nL/well 100× concentration of compound working solutions were moved to 384-well white microplate (Perkin Elmer, Cat #6007680) using Labcyte ECHO550. […]
# After incubation, the cAMP assay signal was generated using cAMP dynamic 2 kit (Revvity, Cat #62AM4PEC). […] The samples were then incubated at room temperature for 1 hour protected from light. the fluorescence was read at 665 and 615 nm with Reader PerkinElmer EnVision 2105.
# [2] = target: T1, human calcitonin receptor (CTR) in COS-7 cells (Homo sapiens, UniProt P30988); assay: Calcitonin Receptor (CTR) cAMP Assay; details: COS7-human CTR Clone #2 cells; read-out: Calcitonin Receptor cAMP Stimulation Activity: EC50
# T1 construct: expressed in transfected cells; host or cells: COS-7 (COS7-human CTR Clone #2)
# T1 sequence (P30988 25-474): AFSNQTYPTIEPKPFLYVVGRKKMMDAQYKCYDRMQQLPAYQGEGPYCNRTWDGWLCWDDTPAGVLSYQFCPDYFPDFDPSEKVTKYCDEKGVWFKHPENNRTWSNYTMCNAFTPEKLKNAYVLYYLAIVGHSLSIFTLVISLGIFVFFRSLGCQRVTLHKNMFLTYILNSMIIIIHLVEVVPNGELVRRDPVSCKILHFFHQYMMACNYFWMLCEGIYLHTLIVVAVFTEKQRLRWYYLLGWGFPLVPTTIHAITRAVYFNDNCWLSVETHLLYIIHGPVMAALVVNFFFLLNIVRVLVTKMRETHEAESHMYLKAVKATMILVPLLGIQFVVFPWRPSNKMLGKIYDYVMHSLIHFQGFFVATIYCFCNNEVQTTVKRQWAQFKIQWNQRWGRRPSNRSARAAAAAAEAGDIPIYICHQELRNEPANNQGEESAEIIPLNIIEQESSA
# Source text: Calcitonin Receptor (CTR) cAMP Assay
# The calcitonin receptor (CTR) belongs to the subfamily of GPCRs known as the secretin or ‘B’ family of GPCRs. Like other class B1 GPCRs, the CT receptor family is canonically coupled to Gs-mediated cAMP production, and measurement of cAMP accumulation has been the primary assay used to determine peptide selectivity and potency.
# (§1) To optimize functional activity directed toward Gas coupling, COS-7 cells were stably transfected with human calcitonin receptor (CTR) to create COS7-human CTR Clone #2 stable cell line. 100× concentration of compound working solutions were prepared with 4-fold serial dilution in 384-well Echo LDV plate (Labcyte, Cat #LP-0200-BC). 200 nL/well 100× concentration of compound working solutions were moved to 384-well white microplate (Perkin Elmer, Cat #6007680) using Labcyte ECHO550. 1×10^5 cells/mL COS7-human CTR Clone #2 cell suspensions prepared with assay buffer [HBSS containing 20 mM HEPES (Gibco, Cat #15630-080), 0.5 mM IBMX (Sigma, Cat #15879) and 0.1% Casein (Sigma, Cat #C4765)], 20 μL cell suspensions were added to each well of previous generated assay plate which already contains 200 nL compound at 100× concentration using ThermoFisher Multidrop Combi (2000 cells/well). Seal the plate and incubate at 37° C. with 5% CO2 for 30 min.
# (§2) After incubation, the cAMP assay signal was generated using cAMP dynamic 2 kit (Revvity, Cat #62AM4PEC). 10 μL cAMP-d2 working solution was added to each well, followed by 10 L Anti-cAMP antibody-cryptate working solution which was added to each well using CERTUS FLEX LIQUID DISPENSER. The samples were then incubated at room temperature for 1 hour protected from light. the fluorescence was read at 665 and 615 nm with Reader PerkinElmer EnVision 2105.
# [3] = target: Amylin Receptor (Homo sapiens, UniProt O60896+P30988); assay: Amylin Receptor cAMP stimulation, assay version (I or II) not marked; details: values without footnote mark; assay I or II not stated
# Method: To optimize functional activity directed toward Gas coupling, COS-7 cells were stably transfected with human calcitonin receptor (CTR) and RAMP3, simultaneously. 100× concentration of compound working solutions were prepared (Agilent Technologies Bravo) with 4-fold serial dilution in 384-well Echo LDV plate (Labcyte, Cat #LP-0200). 100 nL/well 100× concentration of compound working solutions were moved to 384-well white low volume plate (Greiner, Cat #784075) using Labcyte ECHO550. 1×10^5 cells/mL COS-7/CTR or COS-7/AMY3 (HD Biosciences) cell suspensions prepared with assay buffer [DPBS containing 0.5 mM IBMX (Sigma, Cat #15879) and 0.1% BSA (GENVIEW, Cat #FA016-100 g)], 10 μL cell suspensions were added to each well of previous generated assay plate which already contains 100 nL compound at 100× concentration using ThermoFisher Multidrop Combi (1000 cells/well). Seal the plate and incubate at 37° C. with 5% CO2 for 30 min.
# as §2, with “Hi-range Kit (Cisbio). 5” for “dynamic 2 kit (Revvity, Cat #62AM4PEC). 10”, “5 μL” for “10 L”, “ThermoFisher Multidrop Combi.” for “CERTUS FLEX LIQUID DISPENSER.”, “EnVision.” for “EnVision 2105.”
# as §1, with “and RAMP3, simultaneously.” for “to create COS7-human CTR Clone #2 stable cell line.”, “COS-7/AMY3” for “COS7-human CTR Clone #2”
# as §2, with “10 μL” for “10 L”
# Chain of Amylin Receptor (O60896 24-148, one chain of several): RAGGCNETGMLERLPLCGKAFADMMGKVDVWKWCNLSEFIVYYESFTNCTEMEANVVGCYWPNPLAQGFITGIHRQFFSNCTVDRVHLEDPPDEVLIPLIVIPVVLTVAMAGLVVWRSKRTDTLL
# Chain of human calcitonin receptor (CTR) and RAMP3 (AMY3) in COS-7 cells (O60896 24-148, one chain of several): as above
EC50 [1],EC50 [2],EC50 [3],Structure (SMILES)
66 nM,6 nM,,"Cc1nnc(-c2c(CCC3CCN(C(=O)OCc4ccccc4)CC3)nc(CC(C)C)c(C(N)=O)c2-c2ccc(C(=O)NCc3ccc(F)c(F)c3)s2)o1 [Compound 205, Benzyl 4-[2-[5-carbamoyl-4-[5-[(3,4-difluorophenyl)methylcarbamoyl]-2-thienyl]-6-isobutyl-3-(5-methyl-1,3,4-oxadiazol-2-yl)-2-pyridyl]ethyl]piperidine-1-carboxylate]"
,0.581 nM,18.9 nM,"COc1cccc2c1CC[C@H]2Nc1nccc2cc(-c3c(C(N)=O)c(CC(C)C)nc(CCC4CCOCC4)c3-c3nnc(C)o3)sc12 [Compound 208, 4-{7-[(R)-4-methoxy-1-indanylamino]-1-thia-6-aza-2-indenyl}-2-isobutyl-5-(5-methyl-1,3,4-oxadiazol-2-yl)-6-[2-(tetrahydro-2H-pyran-4-yl)ethyl]nicotinamide]"
